For two molecules, Dmax results are on record in patent publication US20230087825A1, “SMARCA DEGRADERS AND USES THEREOF” (Kymera Therapeutics, Inc., priority 2019, published 2023).

The assay addresses T1, SMARCA2 (Homo sapiens, UniProt P51531).
T1 construct: host or cells: NCI-H1299
Briefly: MSD SMARCA2 degradation in NCI-H1299 cell line. In kind it is cell-based. Conditions: NCI-H1299 cells; percentage of SMARCA2 degradation after 24 hours. As for the experimental part: Example 12. MSD SMARCA2 Degration in NCI-H1299 Cell Line
Cell Culture: Cells were cultured in exponential growth phase.
Compound Preparation and Treatment: NCI-H1299 cells were seeded into the 96-well plate at 4.0*10^4 cells per 100 ul per well. Incubate the plate in the incubator overnight. The next day, compounds were diluted to designed stock concentration by TECAN, then perform a 3 fold, 9-point dilution via transferring 15 uL compound into 30 μL DMSO using Apricot. 200 nL diluted compound from compound source plate were transferred into the 96-intermediate plate as designated by using Echo550, followed with 100 ul culture medium to make the 2× compound solution. Cell plate were changed with 80 ul of fresh culture medium and 80 ul of 2× compound solution was added into the well to achieve the final designed concentration. Cell plate was then shaken at 720 rpm for 5 min and incubated for 24 hours in the incubator.
Sample Preperation: Media was aspirated from the cultures and the plate was washed with PBS twice. […]
MSD Procedure: The MSD plate was coated with 40 ul cell lysate and incubated at 4° C. overnight. […] MSD plate was washed 3 times with 150 ul 1×TBST per well and 2× MSD reading buffer was added, 150 ul per well, and diluted from 4× with water. MSD instrument was then read.
Data Analysis: The percentage of relative level of SMARCA2 level was calculated following equation below. […]

By Dmax is commonly meant the largest share of the target that was removed. The low end stands for a partial loss of target, the high end for a fuller loss of target.

T1 sequence (P51531 whole entry): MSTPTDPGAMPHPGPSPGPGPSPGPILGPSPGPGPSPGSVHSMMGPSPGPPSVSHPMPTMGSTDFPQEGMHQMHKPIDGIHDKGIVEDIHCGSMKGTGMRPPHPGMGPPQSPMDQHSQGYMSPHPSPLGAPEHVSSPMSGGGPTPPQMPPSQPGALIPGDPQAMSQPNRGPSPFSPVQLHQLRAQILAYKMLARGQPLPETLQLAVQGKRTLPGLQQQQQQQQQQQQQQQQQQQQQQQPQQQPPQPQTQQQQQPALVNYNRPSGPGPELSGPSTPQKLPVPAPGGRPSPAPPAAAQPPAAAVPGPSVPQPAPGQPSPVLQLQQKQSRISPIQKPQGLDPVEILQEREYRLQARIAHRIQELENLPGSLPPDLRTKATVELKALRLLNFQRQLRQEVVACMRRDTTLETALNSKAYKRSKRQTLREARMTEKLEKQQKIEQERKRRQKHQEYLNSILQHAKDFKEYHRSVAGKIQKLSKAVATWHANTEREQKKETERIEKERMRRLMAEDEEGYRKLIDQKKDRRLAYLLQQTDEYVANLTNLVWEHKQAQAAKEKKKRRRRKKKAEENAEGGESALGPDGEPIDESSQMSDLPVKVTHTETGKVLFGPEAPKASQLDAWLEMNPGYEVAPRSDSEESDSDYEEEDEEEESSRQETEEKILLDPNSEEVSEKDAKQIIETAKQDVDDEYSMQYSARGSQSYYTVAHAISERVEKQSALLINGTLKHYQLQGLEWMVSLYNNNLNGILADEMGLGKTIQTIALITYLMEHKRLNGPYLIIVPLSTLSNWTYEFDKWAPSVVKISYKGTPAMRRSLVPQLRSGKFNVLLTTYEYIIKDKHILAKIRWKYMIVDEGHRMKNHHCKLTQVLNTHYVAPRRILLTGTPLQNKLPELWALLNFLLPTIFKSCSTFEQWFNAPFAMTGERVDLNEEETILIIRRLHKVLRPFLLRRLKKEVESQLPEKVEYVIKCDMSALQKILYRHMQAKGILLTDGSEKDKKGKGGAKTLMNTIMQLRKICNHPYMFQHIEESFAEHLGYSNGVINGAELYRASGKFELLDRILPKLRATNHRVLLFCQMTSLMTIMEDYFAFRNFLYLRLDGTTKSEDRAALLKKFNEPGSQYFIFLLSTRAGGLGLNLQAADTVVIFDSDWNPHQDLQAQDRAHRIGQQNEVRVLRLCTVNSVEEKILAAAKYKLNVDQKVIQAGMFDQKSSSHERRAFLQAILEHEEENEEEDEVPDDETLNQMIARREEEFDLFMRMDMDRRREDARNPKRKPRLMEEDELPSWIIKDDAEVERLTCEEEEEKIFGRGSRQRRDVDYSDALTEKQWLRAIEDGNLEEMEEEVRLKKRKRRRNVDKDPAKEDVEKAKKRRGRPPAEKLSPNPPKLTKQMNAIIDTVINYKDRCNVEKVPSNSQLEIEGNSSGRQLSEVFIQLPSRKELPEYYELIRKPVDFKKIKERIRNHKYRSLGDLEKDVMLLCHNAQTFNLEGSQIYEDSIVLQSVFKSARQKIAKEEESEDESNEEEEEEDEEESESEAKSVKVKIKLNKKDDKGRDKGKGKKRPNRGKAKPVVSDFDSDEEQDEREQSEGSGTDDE

The molecule `Nc1nnc(-c2ccccc2O)cc1-c1ccc(CN2CCN(CCCCCc3cccc4c3c3ccccc3n4C3CCC(=O)NC3=O)CC2)cc1` (centres unmarked) [I-7] yielded a Dmax of 70 to 90%.

`Nc1nnc(-c2ccccc2O)cc1-c1ccc(CN2CCN(CCCCOCCCc3ccc4c(c3)c3ccccc3n4C3CCC(=O)NC3=O)CC2)cc1` (centres unmarked) [I-10] came in with a Dmax of 50 to 70%.
